Molecular target: T1, human estrogen receptor binding to ERE (Homo sapiens, UniProt P03372)
T1 construct: ubiquitin (fusion partner); made in house; host or cells: Saccharomyces cerevisiae strain AF103, YEpE10 plasmid, CUP1 promoter
Assay: Evanescent fiber optic sensor, ERE fiber, binding of Cy5-tagged hER to the estrogen response element
Type: biochemical
Method: This solution comprised said calibration standard of component 6a. […] This receptor preparation was used as the calibration solution. Immediately after preparation it was pipetted in 135 μl aliquots into microcentrifuge tubes, snap frozen and stored at −80° C. They were not thawed again until they were used with the fiber sensor.

T1 sequence (P03372 whole entry, the tested form may be a part): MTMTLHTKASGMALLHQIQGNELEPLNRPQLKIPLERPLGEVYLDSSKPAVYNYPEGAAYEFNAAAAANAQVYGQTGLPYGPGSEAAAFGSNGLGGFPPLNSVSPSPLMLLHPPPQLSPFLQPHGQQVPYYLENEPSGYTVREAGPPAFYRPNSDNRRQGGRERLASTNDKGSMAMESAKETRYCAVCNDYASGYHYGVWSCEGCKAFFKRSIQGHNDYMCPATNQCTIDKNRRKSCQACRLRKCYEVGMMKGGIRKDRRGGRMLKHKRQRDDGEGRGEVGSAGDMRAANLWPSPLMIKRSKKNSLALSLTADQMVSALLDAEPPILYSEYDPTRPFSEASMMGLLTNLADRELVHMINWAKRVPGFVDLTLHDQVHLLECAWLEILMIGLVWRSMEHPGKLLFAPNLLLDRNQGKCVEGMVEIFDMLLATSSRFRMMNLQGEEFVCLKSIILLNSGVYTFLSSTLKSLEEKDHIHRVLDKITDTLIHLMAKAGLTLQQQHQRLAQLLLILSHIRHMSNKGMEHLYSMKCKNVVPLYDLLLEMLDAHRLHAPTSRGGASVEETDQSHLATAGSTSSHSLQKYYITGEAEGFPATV

With `C[C@H]1CCCC(=O)CCC/C=C/c2cc(O)cc(O)c2C(=O)O1` [zearalenone] the “Response of ERE fiber to hER and 10^−6 M compound (control = 3.51)” value (S/C value, control = 3.51) was 5.01 and the “effect on binding of hER to the ERE fiber” value (in words, 10^−6 M compound) was “increase binding to the ERE more than do the weak biological estrogens”.
